Data as given in patent US10894067B2, “Genome stability enhancer” (Yamada Bee Company, Inc., priority 2017, dated 2021).

System: H2AX expression in MEF (mouse embryo fibroblast) cells
Assay: Western analysis of H2AX expression in MEF cells (Test Examples 1-3)
Type: cell-based
Experimental: MEF (mouse embryo fibroblast) cells were cultured at 37° C. in 5% CO2 by the 3T3 method in a 10% FCS (fetal calf serum)-containing DMEM medium to which a 25 μg/ml enzymatically treated RJ or non-treated RJ was added. The cells that were cultured for 0, 3, 6, 12, and 24 hours were harvested, and Western analysis was performed using a H2AX antibody (Bethyl Laboratories, Inc.) and a β-actin antibody (AC-74, Sigma-Aldrich Co. LLC.).
In the same manner as in Test Example 1, the effects of melinjo and trans-resveratrol on H2AX expression were analyzed. In this test example, a 0.26, 0.52, 1.0, or 2.1 w/v % melinjo seed extract or trans-resveratrol was added to a medium, and cells were cultured for 1 hour and harvested.

Oc1ccc(/C=C/c2cc(O)cc(O)c2)cc1 [trans-resveratrol]
Induced transient H2AX expression (Test Example 2, 0.26, 0.52, 1.0 or 2.1 w/v % in medium, cultured 1 hour, FIG. 2): Induced transient H2AX expression was observed | Induced transient H2AX expression (Test Example 3, 2.5 μM (0.52 μg/ml) trans-resveratrol, 0.52 μg/ml melinjo seed extract, 2.5 μM gnetin C, 0-24 hours, FIG. 3): Induced transient H2AX expression was observed
